Test results taken from the supplement of paper PMC10307832.

How the values were obtained:
Test in all cases: relative viability (nuclei count vs DMSO), 5 days (fraction); higher = more cells survive
QS11 + Luminespib = compound: C1CC2=C(C1)C=C(C=C2)OC3=NC(=C4C(=N3)N(C=N4)CC5=CC=C(C=C5)C6=CC=CC=C6)N[C@@H](CC7=CC=CC=C7)CO [QS11] + CCNC(=O)c1noc(-c2cc(C(C)C)c(O)cc2O)c1-c1ccc(CN2CCOCC2)cc1 [Luminespib] (partner 0.01 µM)
Method in brief: (§1)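 Relative viability divides the nuclei count in treated wells by that in vehicle wells. Lung cancer cell lines were seeded in 1536-well plates, dosed by pin tool the next day, and fixed and stained after 5 days in one step with final 0.05% Triton X-100, 1% formaldehyde and 1 ug/ml Hoechst. Dosing was a single drug or a fixed anchor-drug dose plus five library-drug doses (not always all listed) in √10 steps, and values are medians of duplicate plates imaged at 4×.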

AZ628 + Foretinib = compound: CC1=C(C=C(C=C1)NC(=O)C2=CC(=CC=C2)C(C)(C)C#N)NC3=CC4=C(C=C3)N=CN(C4=O)C [AZ628] + COc1cc2c(Oc3ccc(NC(=O)C4(C(=O)Nc5ccc(F)cc5)CC4)cc3F)ccnc2cc1OCCCN1CCOCC1 [Foretinib] (partner 0.25 µM)
Method in brief: as §1

QS11 + Pemetrexed = compound: C1CC2=C(C1)C=C(C=C2)OC3=NC(=C4C(=N3)N(C=N4)CC5=CC=C(C=C5)C6=CC=CC=C6)N[C@@H](CC7=CC=CC=C7)CO [QS11] + Nc1nc2[nH]cc(CCc3ccc(C(=O)N[C@@H](CCC(=O)O)C(=O)O)cc3)c2c(=O)[nH]1 [Pemetrexed] (partner 0.2 µM)
Method in brief: as §1

Darinaparsin + OSI-027 = compound: C[As](C)SC[C@H](NC(=O)CC[C@H](N)C(=O)O)C(=O)NCC(=O)O [Darinaparsin] + COc1cccc2cc(-c3nc([C@H]4CC[C@H](C(=O)O)CC4)n4ncnc(N)c34)[nH]c12 [OSI-027] (partner 0.5 µM)
Method in brief: as §1

Cell Line | relative viability (QS11 + Luminespib; first compound 0.08 µM) | relative viability (QS11 + Luminespib; first compound 0.253 µM) | relative viability (QS11 + Luminespib; first compound 0.8 µM) | relative viability (QS11 + Luminespib; first compound 2.53 µM) | relative viability (QS11 + Luminespib; first compound 8 µM) | relative viability (AZ628 + Foretinib; first compound 0.08 µM) | relative viability (AZ628 + Foretinib; first compound 0.253 µM) | relative viability (AZ628 + Foretinib; first compound 0.8 µM) | relative viability (AZ628 + Foretinib; first compound 2.53 µM) | relative viability (AZ628 + Foretinib; first compound 8 µM) | relative viability (QS11 + Pemetrexed; first compound 0.08 µM) | relative viability (QS11 + Pemetrexed; first compound 0.253 µM) | relative viability (QS11 + Pemetrexed; first compound 0.8 µM) | relative viability (QS11 + Pemetrexed; first compound 2.53 µM) | relative viability (QS11 + Pemetrexed; first compound 8 µM) | relative viability (Darinaparsin + OSI-027; first compound 0.08 µM) | relative viability (Darinaparsin + OSI-027; first compound 0.8 µM) | relative viability (Darinaparsin + OSI-027; first compound 2.53 µM) | relative viability (Darinaparsin + OSI-027; first compound 8 µM)
NCI-H520 | 0.25 | 0.369 | 0.228 | 0.231 | 0.209 | 0.834 | 0.7 | 0.76 | 0.802 | 0.631 | 0.791 | 0.871 | 0.863 | 0.783 | 0.488 | 0.362 | 0.302 | 0.185 | 0.302
H3255 | 0.818 | 1.06 | – | 0.966 | 0.961 | 0.958 | 0.899 | 0.78 | 0.96 | 0.661 | 0.578 | 0.632 | 0.532 | 0.562 | 0.53 | 0.607 | 0.543 | 0.618 | 0.547
PC-14 | – | 0.14 | 0.183 | 0.135 | 0.148 | 0.95 | 0.916 | 0.949 | 0.945 | 0.765 | – | 0.145 | 0.14 | 0.178 | 0.155 | 1.09 | 0.697 | 0.704 | 1.26
CAL-12T | 0.608 | 0.578 | 0.478 | 0.362 | 0.551 | 1.16 | 1.05 | 1.13 | 0.994 | 0.559 | 1.26 | 1.37 | 1.05 | 1.24 | 1.04 | 0.756 | 0.539 | 0.737 | 0.569
NCI-H3122 | 0.114 | 0.148 | – | 0.114 | 0.109 | 0.787 | 0.625 | 0.499 | 0.613 | 0.233 | 0.2 | 0.214 | – | 0.25 | 0.296 | 1.21 | 1 | 0.95 | 1.14
NCI-H596 | 0.87 | 1.09 | 0.919 | 0.829 | 0.934 | 0.867 | 1.05 | 0.913 | 0.905 | 0.991 | 0.456 | 0.468 | 0.507 | 0.528 | 0.476 | 0.766 | 0.845 | 0.647 | 0.762
NCI-H661 | 0.988 | 0.96 | 0.806 | 1.08 | 0.839 | 1.12 | 0.974 | 0.846 | 0.866 | 0.832 | 1.03 | 0.911 | 0.794 | 0.953 | 0.857 | 0.722 | 0.677 | 0.658 | 0.69
NCI-H1666 | 1.01 | 1.1 | 0.702 | 0.728 | 0.519 | 0.894 | 0.769 | 0.749 | 0.756 | 0.893 | 0.834 | 0.937 | 0.824 | 0.739 | 0.651 | 0.926 | 0.827 | 0.847 | 0.982
